# Laboratory results from patent US9629894B2, “Magnesium-containing oxytocin formulations and methods of use” (Trigemina, Inc., priority 2015, dated 2017).
# How the values were obtained:
# [1] = tested on: rat model of facial thermal nociception; assay: Rat model of facial thermal nociception: cheek withdrawal latency to radiant heat after nasal administration; format: in vivo; settings: for analgesic effect (elevation in latency to withdrawal): 15-300 min
# Method: The heat from a projector lamp was focused on the pre-shaved cheek of rats and the intensity was varied to obtain a withdrawal response with a latency of between 6.5 and 8.5 seconds. The intensity applied to achieve such latencies was recorded for each animal. Once stable/acceptable baseline values were obtained, the average latencies for each rat were calculated. After baseline cheek withdrawal latencies were determined for all rats, each rat received a single nasal administration of either normal saline, 15% magnesium chloride in water, or 1% magnesium lactate in water according to the method developed by Frey (Thorne, et al. Neuroscience., 127: 481-496 (2004)). Briefly, rats (under urethane anesthesia) were placed in a supine position with a rolled pad (2×2 gauze) inserted under the dorsal neck to extend the head back toward the supporting surface. The upper surface of the neck was kept horizontal throughout the dosing procedure to maintain the drug solution in the nasal cavity and minimize dripping down the nasopharynx. A 6 μL drop of the respective drug solution was delivered off the tip of a small pipette and presented to the nares on the left side of the rat while occluding the opposite nares. One drop was administered every 2 minutes, alternating between each nares (thus amounting to a four minute interval between doses to the same nares). Each nostril received 4 drops, totaling a combined volume of 48 μL (8 drops of 6 μL each). Drug solutions were coded in order to keep the experimenter blinded as to the substances delivered. Left cheek withdrawal latencies in response to radiant heat stimulation were then measured over the next 3 hours. Withdrawal latencies were measured prior to nasal administration and at 1, 2, and 3 hours post-treatment.
# (§1) One of 4 concentrations of dibasic magnesium citrate (1:1 Mg/citrate) was applied to rats and the effects of these applications on responses to noxious thermal stimulation of the face were assessed as described above. Each rat received a single nasal administration of 3, 6, 10, or 12% magnesium citrate in water (6 rats/group) according to the method described above. Left cheek withdrawal latencies in response to radiant heat stimulation were then measured over the following 300 minutes. Withdrawal latencies were measured prior to nasal administration and at 15, 30, 45, 60, 120, 180, 240, and 300 min post-treatment.
# as §1, with “3 doses” for “4 concentrations”, “oxytocin in buffered saline” for “dibasic magnesium citrate (1:1 Mg/citrate)”, “1, 4,” for “3, 6, 10,”, “8 μg oxytocin” for “12% magnesium citrate”, “aqueous solution” for “water”
# Aqueous solutions containing a combination of magnesium citrate at one of 3 concentrations with oxytocin at one of 3 doses were applied nasally in rats and changes in withdrawal response latency were measured as above. Each rat received a single nasal administration of 1, 4, or 8 μg of oxytocin in aqueous solution containing 3, 6, or 12% magnesium citrate according to the method described above. Left cheek withdrawal latencies in response to radiant heat stimulation were then measured over the following 300 minutes. Withdrawal latencies were measured prior to nasal administration and at 15, 30, 45, 60, 120, 180, 240, and 300 min post-treatment.
# Difference scores were generated for each time point after dosing by comparing the respective withdrawal response latency to pre-dosing (baseline) values.
# [2] = tested on: head, neck and shoulder pain; assay: Patient with chronic tension-type headache with head, neck and shoulder pain, oxytocin nasal sprays; format: in vivo, human
# Description: A patient with chronic tension-type headache reported having intense pain in their head, neck and shoulders. The patient took 4 sprays of 7.5 IU/spray oxytocin for a dose of 30 units, at which point their headache pain was gone, but the neck and shoulder pain remained. […] Thus, a higher dose was necessary to affect neck and shoulder pain than was necessary to inhibit head pain in the same patient.
# [3] = tested on: rat paw inflammation model; assay: Rat paw inflammation model (complete Freund's adjuvant in forepaw), force withdrawal threshold to mechanical stimulation; format: in vivo; settings: nasal, FIG. 8
# Method: The analgesic effect of nasally administered oxytocin on cervical nerve-associated inflammatory pain was assessed in a rat paw inflammation model (Martin et al., Pain 1999, 82:199-205). Oxytocin was nasally administered at one of three doses (193, 385 or 768 micrograms in 48 microliters) and force withdrawal thresholds in grams were determined following mechanical stimulation of the inflamed area (forepaw), at regular intervals over the next three hours, and compared against those of vehicle (phosphate buffered saline) treated rats. Injection of complete Freund's adjuvant into the left forepaw of rats produced a robust inflammation of that paw as well as a substantial decrease in the force necessary to elicit a withdrawal response (mechanical allodynia).
# [4] = 4 sprays of 7.5 IU/spray oxytocin, dose of 30 units
compound,measurement,setting,value
CC(O)C(=O)[O-].CC(O)C(=O)[O-].[Mg+2] (centres unmarked) [magnesium lactate],analgesic effect (withdrawal latency),"[1]; 1% magnesium lactate in water, nasal, rats",mild analgesic effect
same,latencies at the 2 and 3 hour time points,"[1]; 1% magnesium lactate in water, nasal, rats, 2 and 3 hours",still substantially elevated
same,raising response latencies (withdrawal latency to noxious heat),"[1]; 1% magnesium lactate in water, single nasal administration 48 μL, rats",approximately 1.5 s
"CC[C@H](C)[C@@H]1NC(=O)[C@H](Cc2ccc(O)cc2)NC(=O)[C@@H](N)CSSC[C@@H](C(=O)N2CCC[C@H]2C(=O)N[C@@H](CC(C)C)C(=O)NCC(N)=O)NC(=O)[C@H](CC(N)=O)NC(=O)[C@H](CCC(N)=O)NC1=O [oxytocin, Cys-Tyr-Ile-Gln-Asn-Cys-Pro-Leu-Gly]",headache pain,[2]; [4],gone
same,neck and shoulder pain,[2]; [4],remained
same,neck and shoulder pain,"[2]; additional 8-10 sprays, or a total of 60-75 IU",receded and ceased
same,reversal of the mechanical allodynia resulting from inflammation,"[3]; higher 2 doses, 385 or 768 micrograms in 48 microliters",statistically significant partial reversal
same,increasing pain thresholds (force withdrawal threshold),"[3]; lowest dose, 193 micrograms in 48 microliters",ineffective
same,withdrawal latency,"[1]; 1 μg oxytocin, nasal",no increase
same,analgesic effect (elevation in latency to withdrawal),"[1]; 1, 4 or 8 μg oxytocin in aqueous solution, nasal, FIG. 3",clear dose-dependent analgesic effect
same,latency to withdrawal in response to noxious cheek heating,"[1]; 4 and 8 μg oxytocin, nasal",robust increase in latency to withdrawal
magnesium citrate,analgesic effect (elevation in latency to withdrawal),"[1]; 3, 6, 10 or 12% magnesium citrate in water, nasal, FIG. 2",clear dose-dependent analgesic effect
[Cl-].[Cl-].[Mg+2] [magnesium chloride],analgesia at 2 and 3 hours after dosing,"[1]; 15% magnesium chloride in water, nasal, 2 and 3 hours",analgesia continuing
same,analgesic effect compared to nasal saline treated rats,"[1]; 15% magnesium chloride in water, nasal, 1 hour",strong analgesic effect
